{"source": "patent US9359451B2", "about": "“Methods and compositions for treating trauma-hemorrhage using estrogen and derivatives thereof” (THE UAB RESEARCH FOUNDATION, priority 2012, dated 2016)", "key": {"[1]": {"tested_on": "splenic macrophages (sMΦ) and peritoneal macrophages (pMΦ)", "experiment": "Splenic and peritoneal macrophage cytokine release after trauma-hemorrhage (ex vivo, LPS)", "type": "in vivo, mouse", "conditions": "24 h after trauma-hemorrhage, LPS 48 h", "protocol": "Experimental groups. Ovariectomy was performed in female CBA/J mice 2 wk before trauma-hemorrhage using two dorsolateral incisions. […] Two weeks after ovariectomy, the animals were divided into four groups. Groups 1 and 2 consisted of sham-operated ovariectomized females, which were neither hemorrhaged nor resuscitated. Animals in groups 3 and 4 consisted of ovariectomized females, which were subjected to the trauma-hemorrhage procedure. Immediately before initiation of fluid resuscitation, animals in groups 1 and 3 received a subcutaneous injection of vehicle ([…] corn oil), and animals in groups 2 and 4 were treated with E2 ([…]/25 g body wt dissolved in […] corn oil). Each group consisted of 7-8 animals.\nTrauma-hemorrhage procedure. Mice in the trauma-hemorrhage groups were lightly anesthetized with methoxyflurane (Metofane; Pitman Moore, Mundelein, Ill.) and restrained in a supine position, and a 2.5-cm midline laparotomy (i.e., soft tissue trauma induced) was performed, which was then closed aseptically in two layers using 6-0 Ethilon sutures (Ethicon, Somerville, N.J.). Both femoral arteries were then aseptically cannulated with polyethylene-10 tubing (Clay-Adams, Parsippany, N.J.) using a minimal dissection technique, and the animals were allowed to awaken. Blood pressure was constantly monitored by attaching one of the catheters to a blood pressure analyzer (Micro-Med, Louisville, Ky.). Lidocaine was applied to the incision sites to provide analgesia during the study period. Upon awakening, the animals were bled through the other catheter to a mean arterial blood pressure of 35±5 mmHg (mean arterial blood pressure prehemorrhage was 95±5 mmHg), which was maintained for 90 min. At the end of that procedure, the animals were resuscitated with four times the shed blood volume in the form of lactated Ringer solution. The catheters were then removed, the vessels were ligated, and the groin incisions were closed. Sham-operated animals underwent the same surgical procedure, which included ligation of both femoral arteries, but neither hemorrhage nor fluid resuscitation was carried out. There was no mortality observed in this model of trauma-hemorrhage.\nPreparation of sMΦ and pMΦ culture. Spleens were harvested aseptically, and sMΦ cultures were established as previously described in detail (Zellweger 1996). Resident pMΦ were harvested by peritoneal lavage at 24 h after sham operation or trauma-hemorrhage and resuscitation, and monolayers were established as previously described (Ayala 1990). The monolayers of sMΦ and pMΦ (1×10^6 cells/ml) were stimulated with […] of lipopolysaccharide W/ml Click's medium containing 10% heat-inactivated FBS for 48 h at 37° C., 5% CO2, and 90% humidity to assess the cells' ability to release cytokines (Lipopolysaccharide W was from Escherichia coli 055:B5, Difco Laboratories, Detroit, Mich.) At the end of the incubation period, the culture supernatants were removed, centrifuged at 300 g for 15 min, divided into aliquots, and stored.\nIL-10 concentrations in macrophage and splenocyte supernatants and IFN-γ levels in the splenocyte supernatants were determined using sandwich-enzyme-linked immunosorbent assay technique (ELISA) according to the manufacturer's recommendations (BD OptEIA ELISA set; BD Pharmingen, San Diego, Calif.).\nIL-6 activity was determined by assessing the 72-h proliferation of the IL-6-dependent murine B cell hybridoma 7TD1 stimulated by serial dilutions of sMΦ and pMΦ supernatants (Ayala 1992). For the last 3 h of incubation, […] of a 3-(4,5-dimethylthiazol-2-yl)-2,5-diphenyltetrazolium bromide solution (5 mg/ml in RPMI 1640; Sigma Chemical, St. Louis, Mo.) was added to each well. The amount of dark blue formazan crystal formation was then measured spectrophotometrically. […]"}, "cardiac performance": {"tested_on": "cardiac performance", "experiment": "SPECT-CT of cardiac performance after severe hemorrhage", "type": "in vivo, rat", "conditions": "FIG. 46", "protocol": "This was measured by SPECT-CT (single photon emission computed tomography-computed tomography) which enables the measurement of the volume of blood forced from the heart visualized through 3-D, real-time imaging (FIG. 46)."}, "[2]": {"conditions": "rat, in vivo, iv"}, "[3]": {"tested_on": "ovariectomized female CBA/J mice", "experiment": "Trauma-hemorrhage in ovariectomized female mice: plasma E2 and uterine wet weight", "type": "in vivo, mouse", "conditions": "24 h after E2 sc; sham operated or hemorrhaged, vs vehicle", "experimental": "To test this, ovariectomized female CBA/J mice were subjected to laparotomy (i.e., soft tissue trauma) and hemorrhagic shock (35±5 mmHg for 90 min, then resuscitated) or sham operation. […] Immune cells were isolated 24 h thereafter.\nExperimental groups. Ovariectomy was performed in female CBA/J mice 2 wk before trauma-hemorrhage using two dorsolateral incisions. […] Two weeks after ovariectomy, the animals were divided into four groups. Groups 1 and 2 consisted of sham-operated ovariectomized females, which were neither hemorrhaged nor resuscitated. Animals in groups 3 and 4 consisted of ovariectomized females, which were subjected to the trauma-hemorrhage procedure. […] Each group consisted of 7-8 animals.\nTrauma-hemorrhage procedure. […] Blood pressure was constantly monitored by attaching one of the catheters to a blood pressure analyzer (Micro-Med, Louisville, Ky.). […]\nDetermination of plasma E2 concentration. E2 concentration was determined using a commercially available radio-immunoassay (ICN Biomedicals, Costa Mesa, Calif.) as described by the manufacturer."}, "degenerate neurons": {"tested_on": "degenerate neurons", "experiment": "Traumatic brain injury: Fluro-Jade staining of degenerate neurons", "type": "in vivo, rat", "conditions": "brain cortex or CA 2/3 hippocampus, 24 hours after 1 mg/kg iv given 1 hour after LFP TBI", "from_the_text": "As such, the lesser the FJ staining, the greater the neuroprotection. Sections stained with FJ are quantified as FJ positive cells, and are taken from brain cortex or CA 2/3 region of the hippocampus. The groups shown in the graph above are sham+vehicle, sham+E2, TBI+vehicle and TBI+E2."}, "[4]": {"tested_on": "Sprague-Dawley adult male rats", "experiment": "Traumatic brain injury (lateral fluid percussion): ICP, CPP and pbtO2 monitoring", "type": "in vivo, rat", "protocol": "Sprague-Dawley adult male rats were divided into 4 groups: vehicle, E2-SO4 (1 mg/kg), sham+vehicle and sham+E2-SO4; n=5/group. The TBI model was lateral fluid percussion injury (LFP), induced via a hydraulic pressure pulse to the anesthetized rat's exposed brain. This was introduced through a burr hole in the lateral skull prepared one day prior to LFP. A single iv dose of E2-SO4 or saline vehicle was administered 1 hr after LFP. Physiological parameters were measured 24 hr post-injury.\nIn a second experiment, the efficacy of E2-SO4 treatment for TBI in a lateral fluid percussion (LFP) model was examined. This involved 6 groups of rats (n=5/group). All rats received a craniectomy. Groups 1, 2, 4 and 5 received LFP injury. Groups 1 and 4 were treated with E2 (1 mg/kg) 1 hr post-injury, groups 2 and 5 were vehicle (Veh)-treated and groups 3 and 6 were sham. Groups 1-3 underwent intracranial pressure (ICP), cerebral perfusion pressure (CPP) and partial oxygen pressure (pbtO2) monitoring. Groups 4-6 underwent fludoexoyglucose (FDG)-PET/CT and diffusion tensor imaging (DTI) analysis on days 1 and 7 post-induction. Relative standard uptake values (SUV) of upper half of brain to central value, fractional anisotropy (FA) and apparent diffusion coefficient (ADC) maps were calculated.\nFIG. 48B is a plot of cerebral perfusion pressure, which is a derivative of mean arterial pressure less ICP. […] The X axis is shown for an extended 2 hours to confirm stability for the various probes used.\nThe clinical manifestation of edema after TBI can be seen as increased intracranial pressure, with lower brain perfusion pressure and reduced oxygen tension. […] FIG. 44 compares treatments for TBI with hormones, measured over a 120 min period to control the effects of the invasive probe on pressures. The treatments are progesterone (T+progesterone: magenta), progesterone plus E2-SO4 (T+E+P: brown), E2-SO4 (T+E2SO4: red) and EE-3-SO4 (T+EE-3SO4: yellow)."}}, "data": [{"smiles": "C[C@]12CC[C@@H]3c4ccc(O)cc4CC[C@H]3[C@@H]1CC[C@@H]2O", "note": "[17β-estradiol]", "values": [{"measurement": "pMΦ IL-1β release", "setting": "[1]", "value": "partial restoration of pMΦ IL-1β release"}, {"measurement": "pMΦ IL-6 production", "setting": "[1]", "value": "maintained at sham levels"}, {"measurement": "pMΦ IL-10 production", "setting": "[1]", "value": "not affected by either trauma-hemorrhage or E2 treatment"}, {"measurement": "sMΦ IL-6 release", "setting": "[1]", "value": "did not influence IL-6 release"}, {"measurement": "sMΦ IL-10 release", "setting": "[1]", "value": "significantly reduced IL-10 release"}, {"measurement": "sMΦ IL-12 production", "setting": "[1]", "value": "prevented the depression in sMΦ IL-12 production"}, {"measurement": "cardiac performance as ejection fraction (SPECT-CT)", "setting": "cardiac performance", "value": "substantially enhance cardiac performance as ejection fraction"}, {"measurement": "blood levels after injection", "setting": "[2]", "value": "attains high blood levels rapidly"}, {"measurement": "uterine wet weight", "setting": "[3]", "value": "significantly increased"}, {"measurement": "Fluro-Jade positive cells (neurodegeneration)", "setting": "degenerate neurons", "value": "greater that twofold fewer cells undergoing neurodegeneration"}, {"measurement": "oxygen delivery to the injured brain", "setting": "[4]; FIG. 48, E2 treatment administered 24 hours after TBI", "value": "enhances oxygen delivery to the injured brain"}, {"measurement": "CPP (cerebral perfusion pressure)", "setting": "[4]; TBI (LFP), 1 mg/kg 1 hr post-injury, Veh 65.2±1.4, sham 82.1±1.3", "value": "75.7±1.4", "unit": "mmHg"}, {"measurement": "pbtO2 (brain tissue oxygen partial pressure)", "setting": "[4]; TBI (LFP), 1 mg/kg iv 1 hr after injury, 24 hr post-injury, vehicle 15.8±1.3, sham 39.6", "value": "34.1±1.6", "unit": "mmHg"}]}]}
